Experimental data reported in publication PMC11200585, “Prospects for Prostate Cancer Chemotherapy: Cytotoxic Evaluation and Mechanistic Insights of Quinolinequinones with ADME/PK Profile” (Biomedicines, 2024).

How the values were obtained:
A549/ATCC = assay: NCI-60 five-dose assay (non-small cell lung cancer); type: cell-based, human; conditions: 48 h, SRB; for GI50 / CC50: Homo sapiens; for CC50: read-out: LC50 (the source's name)
MALME-3M = assay: NCI-60 five-dose assay (melanoma); type: cell-based, human; conditions: 48 h, SRB; for GI50 / LC50: Homo sapiens
MCF7 = assay: NCI-60 five-dose assay (breast cancer); type: cell-based, human; conditions: 48 h, SRB; for GI50 / LC50: Homo sapiens
DU-145 cells = assay: MTT assay; type: cell-based; conditions: Homo sapiens, 24 h, mean ± SEM
Protocol: (§1) For the MTT assay, DU-145, MDA-MB-231, HCT-116, and HUVEC cells (American Type Culture Collection) were seeded at a concentration of 1 × 10^4 cells per well in 96-well plates and allowed to incubate overnight, ensuring proper adherence. Subsequently, a series of concentrations for both AQQ1 and AQQ2 (ranging from 1 to 100 µM) were added to the culture medium with a final concentration of 1% DMSO, and cells were subjected to an additional 24 h incubation period. The control group only received 1% DMSO (Biomatik, Cambridge, ON, Canada). To establish a baseline for comparison, DOXO (Saba, İstanbul, Turkey), a known chemotherapeutic agent, was administered at equivalent concentrations. Following the incubation period, MTT (3-(4,5-dimethylthiazol-2-yl)-2,5-diphenyltetrazolium bromide) (Biomatik, Canada) assay was carried out to assess cell viability. Finally, the absorbance was quantified at 590 nm using a BioTek Epoc plate reader (Biotek, Winooski, VT, USA). The derived data were analysed using GraphPad Prism 8 software to calculate the inhibitory concentration 50 (IC50) values of the test compounds.

HCT-116 cells = assay: MTT assay; type: cell-based; conditions: Homo sapiens, 24 h, mean ± SEM
Protocol: as §1

[1] = tested on: Human Umbilical Vein Endothelial Cells (HUVEC); assay: MTT assay; type: cell-based; conditions: 24 h, mean ± SEM
Protocol: as §1

MDA-MB-231 cells = assay: MTT assay; type: cell-based; conditions: Homo sapiens, 24 h, mean ± SEM
Protocol: as §1

[2] = Log P (experimental, n-octanol); type: physicochemical
[3] = In vitro metabolic stability; type: in vitro ADME, rat (Sprague-Dawley); conditions: Rat liver microsomes; for % Metabolism in 30 min: 0.5 µM, 0.5 mg/mL protein; for half-life at 0.5 µM / microsomal CLint at 0.5 µM: male, Sprague-Dawley, pH 7.4
Protocol: (§2) S2. ADME and PK Profiling
(§3) S2.1. In vitro Metabolic Stability Study […]
(§4) metabolic stability of AQQ1 and AQQ2. A final protein (liver microsomal) concentration of 0.5 mg/mL and final test substance (AQQ1 and AQQ2) concentration of 0.5 µM were used for the study. To the respective microsomes at a volume of 12.5 µL in the well, 2.5 µL of test substance ([…] in acetonitrile: dimethyl sulfoxide, 96:4) in the presence and absence of NADPH (50 µL, 10 mM) were added and the final volume made up to 500 µL with sodium phosphate buffer (50 mM, pH 7.4). The one without NADPH served as control. Sampling (50 µL) were done at the following time points: 0, 5, 10, 15, and 30 min for sample and at 0 and 30 min for control.
(§5) Acetonitrile (150 µL) was used as quenching solvent, internal standard (Rolipram) was added, vortexed/centrifuged and the aliquot from the supernatant was analyzed using LC-MS/MS. All the experiments were performed in duplicate.

[4] = In vitro metabolic stability; type: in vitro ADME, dog (Beagle); conditions: Dog liver microsomes; for % Metabolism in 30 min: 0.5 µM, 0.5 mg/mL protein; for half-life at 0.5 µM / microsomal CLint at 0.5 µM: male, Beagle, pH 7.4
Protocol: as §2, §3, §4, §5

[5] = In vivo bioavailability / pharmacokinetic study IV and PO; set-up: species or system male Sprague-Dawley rats; conditions: rat; for AUC(0-inf) / AUC(0-t) / C0 / MRT last / Vd / clearance / half-life / Cmax / Tmax: male, Sprague-Dawley, whole blood; for Tmax: median
Protocol: Using the validated Phoenix® WinNonlin® 8.3 NCA tool Version 8 or higher (Certara L.P.), USA, pharmacokinetic parameters were computed. As appropriate, Cmax, Tmax, and exposures (AUCinfinity and AUClast) were calculated. Furthermore, pharmacokinetic characteristics such as distribution volume (Vd), […] (CL), elimination half-life (T1/2), and parenteral route like (C0) were evaluated. Using dose-normalized non-intravenous exposure versus dose-normalized intravenous exposure, oral bioavailability (F%) was computed (Table 5).
S2.2. In vivo Bioavailability Study of AQQ1 and AQQ2 in Male Sprague-Dawley Rats Sprague-Dawley rats (HyLasco Biotechnology (India) Pvt. Ltd., a subsidiary of Charles River from the US) of 8-12 weeks of age (at the time of treatment), weighing between 220 and 320 g, […]
Housing: Animals were housed in polysulfonate cages in a typical research laboratory environment at 25 ± 3°C and 50%-70% relative humidity with approximately 12 h light and dark cycles maintained with an enrichment device. During the study, the animals had access to a rat maintenance diet (Altromin Spezialfutter GmbH, Germany) and purified water (UV-treated, […]
Animal experiments were conducted in accordance with the guidelines of the Committee for the Purpose of Control and Supervision of Experiments on Animals (CPCSEA), Ministry of […], Government of India, and approved by the Institutional Animal Ethics Co m m i tt e e . […] AQQ1 a n d AQQ2 in NMP (10%) + PBS (pH 7.4) qs was administered intravenously at a dose of 1 mg/kg bw (10 mL/kg). AQQ1 and AQQ2 in NMP (10%) + Cremophor EL (5%) + PEG400 (30%) + PG (20%) + PBS (pH 7.4) qs was administered PO at a dose of 5 mg/kg bw (10 mL/kg). The animal weight on the day of dosing was used to calculate the required volume of the formulation and administered to the rats.
After dosing, blood samples (~0.250 mL) were collected from the jugular vein at the following time points: 0.083 (IV only), 0.25, 0.5, 1, 2, 4, 6, 8, and 24 h using a serial sampling design (equal volumes of heparinized saline were replaced after each sample collection). The samples were collected in pre-labeled microcentrifuge tubes containing K2EDTA (20 μL of 200 mM solution […]
per mL of blood) as an anticoagulant. The blood samples were stored at -60°C until bioanalysis using the fit-for-purpose LC-MS/MS method. Pharmacokinetic parameters were calculated using the non-compartmental analysis (NCA) tool of the validated Phoenix® WinNonlin® 8.3.
Group Treatment/Route Dose (mg/kg) Dose volume (mL/kg) Stregth

Compound | TGI (A549/ATCC) [µM] | GI50 (A549/ATCC) [µM] | CC50 (A549/ATCC) [µM] | TGI (MALME-3M) [µM] | GI50 (MALME-3M) [µM] | LC50 (MALME-3M) [µM] | TGI (MCF7) [µM] | GI50 (MCF7) [µM] | LC50 (MCF7) [µM] | IC50 (DU-145 cells) [µM] | IC50 (HCT-116 cells) [µM] | IC50 [1] [µM] | IC50 (MDA-MB-231 cells) [µM] | logP [2] | % Metabolism in 30 min [3] [%] | half-life at 0.5 µM [3] [min] | microsomal CLint at 0.5 µM [3] [µL/min/mg] | % Metabolism in 30 min [4] [%] | half-life at 0.5 µM [4] [h] | microsomal CLint at 0.5 µM [4] [µL/min/mg] | further results
CCOc1ccc(NC2=C(Cl)C(=O)c3nc(C)ccc3C2=O)cc1 [AQQ3] | 4.64 | 2.09 | 17.5 | 3.16 | 1.65 | 6.02 | 3.82 | 1.54 | 9.44 |  |  |  |  |  |  |  |  |  |  |  | 
COc1ccccc1NC1=C(Cl)C(=O)c2nc(C)ccc2C1=O [AQQ1] | 6.24 | 2.44 | 45.2 | 3.19 | 1.71 | 5.95 | 4.49 | 1.78 | > 100 | 4.18 ± 0.73 | 5.83 ± 0.76 | 5.39 ± 0.73 | 8.27 ± 0.91 | 1.85 | 100 | 2 | 656 | 41.5 | 0.517 | 45 | AUC(0-inf) ([5]; IV 1 mg/kg): 115 ± 45.7 ng·h/mL; AUC(0-t) ([5]; IV 1 mg/kg): 77.5 ± 9.81 ng·h/mL; C0 ([5]; IV 1 mg/kg): 90.8 ± 71.3 ng/mL; MRT last ([5]; IV 1 mg/kg): 3.77 ± 0.279 h; Vd ([5]; IV 1 mg/kg): 90.3 ± 40 L/kg; clearance ([5]; IV 1 mg/kg): 161 ± 62.9 mL/min/kg; half-life ([5]; IV 1 mg/kg): 9.35 ± 8.75 h; AUC(0-inf) ([5]; PO 5 mg/kg): 4000 ± 179 ng·h/mL; AUC(0-t) ([5]; PO 5 mg/kg): 3810 ± 111 ng·h/mL; Cmax ([5]; PO 5 mg/kg): 435 ± 18.1 ng/mL; MRT last ([5]; PO 5 mg/kg): 7.47 ± 0.367 h; half-life ([5]; PO 5 mg/kg): 5.22 ± 0.843 h; Tmax ([5]; PO 5 mg/kg): 0.5 h; plasma clearance relative to normal hepatic blood flow of rats ([5]; IV 1 mg/kg): approximately 2.93 fold
COc1cc(NC2=C(Cl)C(=O)c3nc(C)ccc3C2=O)cc(OC)c1 [AQQ5] | 8.97 | 2.83 | 38.8 | 3.28 | 1.76 | 6.11 | 5.33 | 1.82 | > 100 |  |  |  |  |  |  |  |  |  |  |  | 
CCOc1ccccc1NC1=C(Cl)C(=O)c2nc(C)ccc2C1=O [AQQ2] | 4.64 | 2.06 | 12.9 | 2.77 | 1.36 | 5.64 | 3.65 | 1.33 |  | 4.17 ± 0.8 | 9.18 ± 0.96 | 6.39 ± 0.8 | 13.3 ± 1.12 | 1.77 | 100 | 3 | 501 | 79.5 | 0.283 | 84 | AUC(0-inf) ([5]; IV 1 mg/kg): 110 ± 18.1 ng·h/mL; AUC(0-t) ([5]; IV 1 mg/kg): 77 ± 21 ng·h/mL; C0 ([5]; IV 1 mg/kg): 23.2 ± 12.8 ng/mL; MRT last ([5]; IV 1 mg/kg): 6.84 ± 1.84 h; Vd ([5]; IV 1 mg/kg): 147 ± 9.71 L/kg; clearance ([5]; IV 1 mg/kg): 154 ± 26.9 mL/min/kg; half-life ([5]; IV 1 mg/kg): 12.8 ± 2.95 h; AUC(0-inf) ([5]; PO 5 mg/kg): 2370 ± 375 ng·h/mL; AUC(0-t) ([5]; PO 5 mg/kg): 2300 ± 416 ng·h/mL; Cmax ([5]; PO 5 mg/kg): 282 ± 79.4 ng/mL; MRT last ([5]; PO 5 mg/kg): 6.61 ± 0.787 h; half-life ([5]; PO 5 mg/kg): 4.72 ± 1.16 h; Tmax ([5]; PO 5 mg/kg): 1 h; plasma clearance relative to normal hepatic blood flow of rats ([5]; IV 1 mg/kg): approximately 2.8 fold; volume of distribution relative to 0.7 L/kg total body fluids ([5]; IV 1 mg/kg): approximately 210 fold
